From US11104648B2, “Pyrazole derivative” (Zhejiang Research Institute of Chemical Industry Co., Ltd., priority 2018, dated 2021)
Like-named read-outs stand apart in the source and are kept apart here.

Columns and labels:
Assay type in all cases: in vivo
[1] = tested on: Eggs of Tetranychus Cinnabarinus; test: Activity assay of eggs of Tetranychus cinnabarinus (spray method, ovicidal); conditions: for pest or weed control at 2 µg/mL / pest or weed control at 5 µg/mL: Tetranychus cinnabarinus
Protocol: According to the solubility of the test compound, the crude drug was dissolved in N N-dimethylformamide, and then prepared into a test solution of the desired concentration with 1‰ Tween 80 aqueous solution. The content of N. N-dimethylformamide in the solution should not exceed 10%.
Spray method. The broad bean leaves with petioles were cut and inserted into a bottle with water. A certain number of female mites were placed, 24h later, adult mites were removed, and spray treatment was performed in 24 h. The experiment was repeated three times, and a blank control was set, and placed to an observation room (26±2° C., humidity 70%˜80%, 16h light per day) for culture. When the blank control group was incubated, the results were investigated. The non-incubated ones were used as death for investigation.

[2] = tested on: Tetranychus cinnabarinus Nymphs; test: Activity assay of Tetranychus cinnabarinus nymphs (spray on broad bean leaves); conditions: 48 h; for pest or weed control at 2 µg/mL: concentration 2 mg/L; for pest or weed control at 2 µg/mL / pest or weed control at 2.5 µg/mL: read-out: nymph-killing activity; for pest or weed control at 0.5 µg/mL: nymphs, concentration 0.5 mg/L, parallel determination, read-out: Death rate (%)
Protocol: According to the solubility of the test compound, the crude drug was dissolved in N, N-dimethylformamide, and then prepared into a test solution of the desired concentration with 1‰ Tween 80 aqueous solution. The content of N,N-dimethylformamide in the solution should not exceed 10%.
The broad bean leaves with petioles were cut and inserted into a small bottle with water. A certain number of brightly colored, active female adult mites were placed, 24h later, adult mites were removed, and leaves with insufficient eggs were removed. When eggs were hatched and grew into nymphs, spray treatment was performed. The experiment was repeated three times, and a blank control was set, and placed to an observation room (26±2° C., humidity 70%˜80%, 16h light per day) for culture. 48 h later, the results were investigated. The nymphs were gently touched during investigation, and if no response, they were regarded as deaths.

[3] = tested on: adult Tetranychus cinnabarinus; test: Activity assay of adult Tetranychus cinnabarinus (whole-plant spray on bean seedlings); conditions: 48 h; for pest or weed control at 1.25 µg/mL: concentration 1.25 mg/L
Protocol: According to the solubility of the test compound, the crude drug was dissolved in N, N-dimethlfornamide, and then prepared into a test solution of the desired concentration with 1‰ Tween 80 aqueous solution. The content of N,N-dimethylformamide in the solution should not exceed 10%.
Two euphylla bean seedlings were taken, after inoculated with adult Tetranychus cinnabarinus and the base number was investigated, whole plants were sprayed with a hand-held sprayer. The experiment was repeated three times for each treatment, after treatment, placed in a standard observation room after treatment, to investigate the survival number of mites in 48 hand calculate the death rate.

[4] = concentration 2 mg/L, spray, read-out: ovicidal activity
[5] = concentration 5 mg/L, spray, non-incubated eggs counted as dead, read-out: ovicidal activity
[6] = read-out: adult mite-killing activity
[7] = concentration 2.5 mg/L, read-out: adult mite-killing activity
[8] = eggs, concentration 2 mg/L, parallel determination, read-out: Death rate (%)
[9] = adult mites, parallel determination, read-out: Death rate (%)

Structure (SMILES) | pest or weed control at 2 µg/mL [1, 4] [%] | pest or weed control at 5 µg/mL [1, 5] [%] | pest or weed control at 2 µg/mL [2] [%] | pest or weed control at 2.5 µg/mL ([2]; concentration 2.5 mg/L) [%] | pest or weed control at 1.25 µg/mL [3, 6] [%] | pest or weed control at 2.5 µg/mL [3, 7] [%] | further results
C=CCOC(=O)OCO/C(=C(/C#N)c1ccc(C(C)(C)C)cc1)c1cc(C)nn1CC [Compound 570] | ≥ 90 | ≥ 90 | ≥ 90 | ≥ 95 | ≥ 90 | ≥ 90 | 
CCn1nc(C)c(Cl)c1/C(OCOC(=O)CF)=C(\C#N)c1ccc(C(C)(C)C)cc1 [Compound 312] |  |  |  |  |  |  | pest or weed control at 5 µg/mL ([1]; read-out: ovicidal activity): ≥ 90%; pest or weed control at 2.5 µg/mL [2]: ≥ 95%; pest or weed control at 2.5 µg/mL [3, 6]: ≥ 90%
CCn1nc(C)c(C)c1/C(OCOC(=O)OCC(C)C)=C(\C#N)c1ccc(C(C)(C)C)cc1 [Compound 937] | ≥ 90 | ≥ 90 | ≥ 90 | ≥ 95 | ≥ 90 | ≥ 90 | pest or weed control at 2 µg/mL [1, 8]: 100%; pest or weed control at 0.5 µg/mL [2]: 90%; pest or weed control at 1.25 µg/mL [3, 9]: 100%
Cc1nn(C)c(/C(OC(C)OC(=O)CF)=C(\C#N)c2ccc(C(C)(C)C)cc2)c1C (stereo not shown) [Compound 187] |  |  |  |  |  |  | pest or weed control at 5 µg/mL ([1]; read-out: ovicidal activity): ≥ 90%; pest or weed control at 2.5 µg/mL [2]: ≥ 95%; pest or weed control at 2.5 µg/mL [3, 6]: ≥ 90%
Cc1nn(C)c(/C(OC(C)OC(=O)C2CCCCC2)=C(\C#N)c2ccc(C(C)(C)C)cc2)c1Cl (stereo not shown) [Compound 111] |  | ≥ 90 |  | ≥ 95 |  | ≥ 90 | 
C=CC(=O)OCO/C(=C(/C#N)c1ccc(C(C)(C)C)cc1)c1cc(C)nn1CC [Compound 242] |  | ≥ 90 |  | ≥ 95 |  | ≥ 90 | 
CCn1nc(C)c(Cl)c1/C(OCOC(=O)C(C)(C)C)=C(\C#N)c1ccc(C(C)(C)C)cc1 [Compound 305] | ≥ 90 | ≥ 90 | ≥ 90 | ≥ 95 | ≥ 90 | ≥ 90 | 
CCn1nc(C)c(C)c1/C(OC(C)OC(=O)C1CC1)=C(\C#N)c1ccc(C(C)(C)C)cc1 (stereo not shown) [Compound 409] | ≥ 90 | ≥ 90 | ≥ 90 | ≥ 95 | ≥ 90 | ≥ 90 | 
CCC(=O)OC(C)O/C(=C(/C#N)c1ccc(C(C)(C)C)cc1)c1c(Cl)c(C)nn1CC (stereo not shown) [Compound 327] | ≥ 90 | ≥ 90 | ≥ 90 | ≥ 95 | ≥ 90 | ≥ 90 | 
CCn1nc(C)c(Cl)c1/C(OC(C)OC(=O)C(C)(C)C)=C(\C#N)c1ccc(C(C)(C)C)cc1 (stereo not shown) [Compound 330] |  | ≥ 90 |  | ≥ 95 |  | ≥ 90 | 
COC(=O)OC(C)O/C(=C(/C#N)c1ccc(C(C)(C)C)cc1)c1cc(C)nn1C (stereo not shown) [Compound 483] |  | ≥ 90 |  | ≥ 95 |  | ≥ 90 | 
CCn1nc(C)c(C)c1/C(OCOC(=O)OC)=C(\C#N)c1ccc(C(C)(C)C)cc1 [Compound 931] | ≥ 90 | ≥ 90 | ≥ 90 | ≥ 95 | ≥ 90 | ≥ 90 | pest or weed control at 2 µg/mL [1, 8]: 98%; pest or weed control at 0.5 µg/mL [2]: 95%; pest or weed control at 1.25 µg/mL [3, 9]: 95%
Cc1cc(/C(OC(C)OC(=O)OCC(C)C)=C(\C#N)c2ccc(C(C)(C)C)cc2)n(C)n1 (stereo not shown) [Compound 489] |  | ≥ 90 |  | ≥ 95 |  | ≥ 90 | 
CCn1nc(C)cc1/C(OCOC(=O)OC)=C(\C#N)c1ccc(C(C)(C)C)cc1 [Compound 547] | ≥ 90 |  | ≥ 90 |  | ≥ 90 |  | pest or weed control at 2 µg/mL [1, 8]: 100%; pest or weed control at 0.5 µg/mL [2]: 93%; pest or weed control at 1.25 µg/mL [3, 9]: 100%
CCCCCOC(=O)OC(C)O/C(=C(/C#N)c1ccc(C(C)(C)C)cc1)c1cc(C)nn1C (stereo not shown) [Compound 492] |  | ≥ 90 |  | ≥ 95 |  | ≥ 90 | 
Cc1nn(C)c(/C(OC(C)OC(=O)C(C)C)=C(\C#N)c2ccc(C(C)(C)C)cc2)c1C (stereo not shown) [Compound 179] |  | ≥ 90 |  | ≥ 95 |  | ≥ 90 | 

Structure (SMILES) | pest or weed control at 2 µg/mL [1, 4] [%] | pest or weed control at 5 µg/mL [1, 5] [%] | pest or weed control at 2 µg/mL [2] [%] | pest or weed control at 2.5 µg/mL ([2]; concentration 2.5 mg/L) [%] | pest or weed control at 1.25 µg/mL [3, 6] [%] | pest or weed control at 2.5 µg/mL [3, 7] [%] | further results
CCCC(=O)OCO/C(=C(/C#N)c1ccc(C(C)(C)C)cc1)c1c(C)c(C)nn1C [Compound 153] |  | ≥ 90 |  | ≥ 95 |  | ≥ 90 | 
CCn1nc(C)c(C)c1/C(OC(C)OC(=O)C1CCCCC1)=C(\C#N)c1ccc(C(C)(C)C)cc1 (stereo not shown) [Compound 411] |  | ≥ 90 |  | ≥ 95 |  | ≥ 90 | 
CCn1nc(C)cc1/C(OC(C)OC(C)=O)=C(\C#N)c1ccc(C(C)(C)C)cc1 (stereo not shown) [Compound 251] | ≥ 90 | ≥ 90 | ≥ 90 | ≥ 95 | ≥ 90 | ≥ 90 | pest or weed control at 2 µg/mL [1, 8]: 100%; pest or weed control at 0.5 µg/mL [2]: 100%; pest or weed control at 1.25 µg/mL [3, 9]: 100%
CCn1nc(C)c(Cl)c1/C(OC(C)OC(C)=O)=C(\C#N)c1ccc(C(C)(C)C)cc1 (stereo not shown) [Compound 326] | ≥ 90 | ≥ 90 | ≥ 90 | ≥ 95 | ≥ 90 | ≥ 90 | 
CCC(=O)OC(C)O/C(=C(/C#N)c1ccc(C(C)(C)C)cc1)c1cc(C)nn1C (stereo not shown) [Compound 27] |  | ≥ 90 |  | ≥ 95 |  | ≥ 90 | 
Cc1nn(C)c(/C(OCOC(=O)C(C)(C)C)=C(\C#N)c2ccc(C(C)(C)C)cc2)c1Cl [Compound 80] |  | ≥ 90 |  | ≥ 95 |  | ≥ 90 | 
CCn1nc(C)c(Cl)c1/C(OCOC(=O)CC(C)C)=C(\C#N)c1ccc(C(C)(C)C)cc1 [Compound 307] |  | ≥ 90 |  | ≥ 95 |  | ≥ 90 | 
CCn1nc(C)c(C)c1/C(OCOC(=O)C(C)(C)CC)=C(\C#N)c1ccc(C(C)(C)C)cc1 [Compound 391] |  | ≥ 90 |  | ≥ 95 |  | ≥ 90 | 
COC(=O)COC(=O)OCO/C(=C(/C#N)c1ccc(C(C)(C)C)cc1)c1cc(C)nn1C [Compound 477] |  | ≥ 90 |  | ≥ 95 |  | ≥ 90 | 
CCn1nc(C)c(Cl)c1/C(OCOC(=O)C1CCCCC1)=C(\C#N)c1ccc(C(C)(C)C)cc1 [Compound 311] |  | ≥ 90 |  | ≥ 95 |  | ≥ 90 | 
COCC(=O)OCO/C(=C(/C#N)c1ccc(C(C)(C)C)cc1)c1c(Cl)c(C)nn1C [Compound 83] |  | ≥ 90 |  | ≥ 95 |  | ≥ 90 | 
Cc1cc(/C(OCOC(=O)CC(C)C)=C(\C#N)c2ccc(C(C)(C)C)cc2)n(C)n1 [Compound 7] |  | ≥ 90 |  | ≥ 95 |  | ≥ 90 | 
Cc1nn(C)c(/C(OCOC(=O)c2ccccc2)=C(\C#N)c2ccc(C(C)(C)C)cc2)c1C [Compound 164] |  | ≥ 90 |  | ≥ 95 |  | ≥ 90 | 
CCn1nc(C)cc1/C(OC(C)OC(=O)C(C)(C)C)=C(\C#N)c1ccc(C(C)(C)C)cc1 (stereo not shown) [Compound 255] | ≥ 90 | ≥ 90 | ≥ 90 | ≥ 95 | ≥ 90 | ≥ 90 | pest or weed control at 2 µg/mL [1, 8]: 96%; pest or weed control at 0.5 µg/mL [2]: 95%; pest or weed control at 1.25 µg/mL [3, 9]: 95%
COC(=O)OC(C)O/C(=C(/C#N)c1ccc(C(C)(C)C)cc1)c1c(Cl)c(C)nn1C (racemic) [Compound 675] |  |  |  |  |  |  | Death rate (%) ([1]; eggs, concentration 2 mg/L, parallel determination): 100%
